Reference: patent US20160193148A1, “LIPOSOMAL FORMULATIONS FOR THE TREATMENT OF BACTERIAL INFECTIONS” (UNIVERSITY OF GEORGIA RESEARCH FOUNDATION, INC., priority 2013, published 2016)
Values joined by “and” are separate entries in the source; they are usually repeats but may differ in a detail not shown here. Equal values may be shown once. Marks after values point to notes of the source that are not given here.

Assays:
[1] = PELF gentamicin concentrations after single IV or nebulized dose in foals
Procedure: (§1) Eight healthy 5-7-week-old Quarter Horse foals were randomly assigned to one of 4 groups using a balanced Latin-square design. Foals were considered healthy on the basis of physical examinations, complete blood cell counts and plasma biochemical profiles. […] The liposome gentamicin formulation was nebulized using Nortev FLEXINEB. For each treatment, gentamicin was administered over a period of 15 minutes. There was a washout period of 7-14 days between each treatment.
(§2) For the BAL collection, foals were sedated with xylazine and butorphanol. Concentrations of gentamicin were measured in plasma and in bronchoalveolar cells using HPLC-MS.
(§3) Eight foals received a single IV or nebulized dose (6.6 mg/kg bwt) of FG^h or LG in a balanced Latin square design. Beginning at 5-7 weeks of age, every foal received each of the 4 possible drug-route combinations with a 14-day washout period between each administration. Intravenous FG and LG were diluted in 250 ml of sterile 0.9% saline and administered via a jugular catheter as a constant rate infusion over 15 min. Nebulized FG and LG were administered by inhalation over 15 minutes via a commercial equine nebulizer. To ensure equivalent rate of delivery, FG was diluted to the same volume as LG with sterile 0.9% saline. Particle size of nebulized LG was verified using laser diffraction. Blood samples for plasma separation were obtained from a catheter placed in the contralateral jugular vein prior to each drug administration, and at 5, 10, 20, 30, 45 minutes and 1, 1.5, 2, 3, 4, 6, 8, 12, 16, 24 and 48 hours after the end of the 15 minute IV infusion or nebulization period. Bronchoalveolar lavage (BAL) fluid was collected at 2, 4, 8, 24, and 48 hours. Foals were sedated with xylazine hydrochloride (0.5 mg/kg bwt IV) and butorphanol tartrate (0.07 mg/kg bwt IV) prior to collection of BAL fluid. Prior to analysis for gentamicin concentration, blood samples were centrifuged at 400×g for 10 minutes and the resultant plasma frozen at −80° C. until assayed.
(§4) A 10 mm diameter, 2.4 m BAL catheter^k was passed via nasal approach until wedged into a bronchus. The lavage solution consisted of 4 aliquots of 60 ml 0.9% saline solution infused and instantly aspirated. Immediately upon collection, the total volume of BAL fluid recovered was measured and a 3 ml aliquot saved in an EDTA tube from which total nucleated cell count was determined by use of a cell counter.^1 BAL fluid was immediately centrifuged at 400×g for 10 min. The BAL cells in the resultant pellet were washed, re-suspended in 500 μl of acetonitrile: 0.2% formic acid (1:1, v/v), vortexed, and frozen at −80° C. until assayed. Supernatant BAL fluid was also frozen at −80° C. until assayed. Before assaying, the cell pellet samples were thawed, vortexed vigorously and sonicated for 10 minutes to ensure complete cell lysis. The resulting suspension was centrifuged at 500×g for 10 minutes and the supernatant fluid was used to determine the intracellular concentrations of gentamicin.
(§5) Briefly, gentamicin was extracted from plasma (250 μl) and urine (500 μl) using protein precipitation with an equal volume of ice-cold 90:10 acetonitrile: 0.2% formic acid (v/v). Extracted samples were centrifuged (2° C. at 10,000×g for 10 min) twice. Two-hundred microliters of the supernatants were transferred to polypropylene inserts for injection. The supernatant derived from the lyzed BAL cell pellet was transferred to polypropylene inserts for direct injection without further processing. […] An aliquot of the resultant supernatant was then mixed with an equal volume of ice-cold acetonitrile, centrifuged (2° C. at 10,000×g for 10 minutes) and 200 μl was transferred to polypropylene inserts for injection. Calibration standards were prepared in drug-free foal plasma, BAL fluid or urine and then extracted as described above so that standard curves specific to each biologic matrix could be constructed.

[2] = BAL cell gentamicin concentrations after single IV or nebulized dose in foals; details: BAL cells
Procedure: as §1, §2, §3, §4, §5

In the case of gentamicin sulfate [Free Gentamicin], the AUC0-t ([1]; IV) is reported as 44.66 ± 20.96^a μg · h/ml, the C24 h ([1]; IV) is reported as 840 ± 640 ng/mL and the “Tmax (median and range)” value ([1]; IV) is reported as 6 (4-8) h. For the same substance, the AUC0-24 ([1]; IV, Table 2) was 44800 ± 21000 ng·h/mL, the C48 h ([1]; IV, Table 2) was 840 ± 640 ng/mL and the Cmax ([1]; IV, Table 2) was 4.6 ± 1.9 µg/mL. The Cmax ([1]; IV, Table 5) was 4.64 ± 1.99^a μg/ml, the AUC0-24 ([1]; N (nebulized), Table 2) was 41000 ± 15800 ng·h/mL and the C48 h ([1]; N (nebulized), Table 2) was 350 ± 340 ng/mL. The Cmax ([1]; N (nebulized), Table 2) was 13.0 ± 6.7 µg/mL, the AUC0-t ([1]; Neb) was 40.97 ± 15.81^a μg · h/ml and the C24 h ([1]; Neb) was 350 ± 340 ng/mL. For the same substance, the “Tmax (median and range)” value ([1]; Neb) was 2 (2-2) h, the Cmax ([1]; Neb, Table 5) was 13.02 ± 6.70^c μg/ml and the AUC0-t ([2]; IV) was 58.9 ± 41.5^a μg · h/ml. For the same substance, the C24 h ([2]; IV) was 1500 ± 1230 ng/mL, the “Tmax (median and range)” value ([2]; IV) was 2 (2-8)^a h and the AUC0-24 ([2]; IV, Table 3) was 58900 ± 41500 ng·h/mL. The C48 h ([2]; IV, Table 3) was 0.5 ± 0.6 µg/mL, the Cmax ([2]; IV, Table 3) was 3.0 ± 1.7 µg/mL and the C48 h ([2]; IV, Table 5) was 0.47 ± 0.62^a μg/ml. For the same substance, the Cmax ([2]; IV, Table 5, listed as FG) was 3.0±1.7 μg/ml and 2.98 ± 1.67^a μg/ml, the AUC0-24 ([2]; N (nebulized), Table 3) was 37200 ± 18900 ng·h/mL and the C48 h ([2]; N (nebulized), Table 3) was 0.3 ± 0.2 µg/mL. For the same substance, the Cmax ([2]; N (nebulized), Table 3) was 1.5 ± 0.6 µg/mL, the AUC0-t ([2]; Neb) was 37.2 ± 19.0^a μg · h/ml and the C24 h ([2]; Neb) was 1010 ± 570 ng/mL. For the same substance, the “Tmax (median and range)” value ([2]; Neb) was 3 (2-48)^a h, the C48 h ([2]; Neb, Table 5) was 0.32 ± 0.23^a μg/ml and the Cmax ([2]; Neb, Table 5, listed as FG) was 1.5±0.6 μg/ml and 1.49 ± 0.57^a μg/ml.
